pIC50: −log10 of the molar value.
Test system: cultured human mast cells (CHMC)
Experiment: CHMC low cell density IgE activation: tryptase assay
Format: cell-based
Conditions: Homo sapiens, Mast cell, Low Density; read-out: CHMC anti-IgE Tryptase
Experimental: Pellet CHMC cells (980 rpm, 10 min) and resuspend in pre-warmed MT. Add 65 ul of cells to each 96-well plate. Depending on the degranulation activity for each particular CHMC donor, load 1000-1500 cells/well. Mix four times followed by a 1 hr incubation at 37° C. […] Stimulate cells by adding 25 ul of 6× anti-IgE solution to the appropriate plates. Add 25 ul MT to un-stimulated control wells. Mix twice following addition of the anti-IgE. Incubate at 37° C. for 30 minutes. […] Spin plates at 1000 rpm for 10 min to pellet cells. Transfer 25 ul of supernatant to a 96-well black bottom plate and add 100 ul of freshly diluted tryptase substrate solution to each well. Incubate plates at room temperature for 30 min.

pIC50	Compound
< 5.00	Cc1ccnc(Nc2nc(Cl)ncc2F)c1 [Compound R920401]
< 5.00	Fc1cnc(Cl)nc1Nc1ccc(Cl)nc1 [Compound R920400]

Same assay, conditions: low cell density; read-out: CHMC anti-IgE Tryptase

pIC50	Compound
6.17	COc1ccc(Nc2nc(Nc3ccc4c(c3)CC(C(=O)N(C)C)O4)ncc2F)cc1Cl (stereo not shown) [Compound R927052]
6.43	CNC(=O)COc1cccc(Nc2ncc(F)c(Nc3cc(Cl)c(OC)c(Cl)c3)n2)c1 [Compound R927057]
6.55	CNC(=O)COc1cccc(Nc2ncc(F)c(Nc3ccc(OC(C)C)c(Cl)c3)n2)c1 [Compound R926973]

Continued, compound first:

Compound	pIC50
Cc1cccc(C)c1Nc1ncc(F)c(Nc2ccc(Cl)c(Cl)c2)n1 [Compound R927079]	6.22
COc1cc(Nc2ncc(F)c(Nc3ccc4c(c3)NC(=O)C(C)(C)O4)n2)cc(OC)c1 [Compound R927071]	7.17
CC(=O)N1CCN(c2ccc(Nc3nc(NC4CCC4)ncc3F)cc2)CC1 [Compound R945382]	< 5.00
Cn1ncc2ccc(Nc3nc(Nc4ccc5c(c4)NC(=O)C(C)(C)O5)ncc3F)cc21 [Compound R935424]	6.20
COC(=O)N1CCN(c2ccc(Nc3ncc(F)c(NC4CCC4)n3)cc2)CC1 [Compound R945386]	5.86
CNC(=O)COc1cccc(Nc2ncc(F)c(Nc3cccc(OCC(=O)NC)c3)n2)c1 [Compound R945378]	6.12
COc1c(C)cc(Nc2ncc(F)c(Nc3ccc4c(n3)NC(=O)C(C)(C)O4)n2)cc1C [Compound R940395]	< 5.00
CC(=O)N(C)c1ccc(Nc2ncc(F)c(NC3CCC3)n2)cc1 [Compound R945383]	6.01
CCN(C(C)=O)c1ccc(Nc2ncc(F)c(Nc3ccc4c(n3)NC(=O)CO4)n2)cc1 [Compound R945421]	6.43
Fc1ccc(Nc2nc(Nc3ccc4cn[nH]c4c3)ncc2F)cc1F [Compound R935400]	6.30
COc1ccc(Nc2nc(Nc3ccc4cnn(C)c4c3)ncc2F)cc1Cl [Compound R935402]	6.67
COc1c(Cl)cc(Nc2ncc(F)c(Nc3ccc(OC(F)(F)F)c(Cl)c3)n2)cc1Cl [Compound R927055]	< 5.00

Test system: Human Jurkat T-cells (clone N)
Experiment: Jurkat T-cell activation (anti-TCR, CD69 upregulation)
Format: cell-based
Conditions: not given
Method in brief: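 Jurkat cells in RPMI + 5% FBS preincubated with compound 1 h at 37 °C, then stimulated with anti-TCR C305 at 500 ng/ml for 20 h. CD69 surface expression stained with anti-CD69-APC and read by flow cytometry; IC50 versus solvent-only control.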

pIC50	Compound
5.51	CNC(=O)COc1cccc(Nc2nc(Nc3ccc(OCCN(C)C)cc3)ncc2F)c1 [Compound R909253]
5.15	NC(=O)COc1ccc(Nc2ncc(F)c(Nc3ccc(OCC(N)=O)cc3)n2)cc1 [Compound R945025]
5.76	O=C(COc1cccc(Nc2ncc(F)c(Nc3ccc4c(c3)OCCO4)n2)c1)NC1CC1 [Compound R926848]
< 5.00	Fc1cnc(Nc2ccc3c(c2)CCO3)nc1Nc1ccc2c(c1)CCO2 [Compound R909237]
< 5.00	CNC(=O)COc1cccc(Nc2ncc(F)c(Nc3ccc(OCCC(=O)O)cc3)n2)c1 [Compound R950344]
5.28	CNC(=O)COc1cccc(Nc2ncc(F)c(Nc3ccc4c(c3)OC(F)(F)C(F)(F)O4)n2)c1 [Compound R926732]
4.88	CNC(=O)COc1cccc(Nc2ncc(F)c(Nc3cccc(B(O)O)c3)n2)c1 [Compound R926754]
5.74	O=C(CNc1cccc(Nc2ncc(F)c(Nc3ccc4c(c3)OCCO4)n2)c1)NCCO [Compound R950195]
< 5.00	CCOC(=O)c1cnc(Nc2ccc(OCC(=O)OC)cc2)nc1Nc1ccc(OCC(=O)OC)cc1 [Compound R926253]
5.42	CON=C(N)COc1ccc(Nc2nc(Nc3ccc4c(c3)OCCO4)ncc2F)cc1 [Compound R945175]
< 5.00	COC(=O)Cn1ncc2cc(Nc3nc(Nc4ccc(OC(C)C)cc4)ncc3F)ccc21 [Compound R935242]
5.10	COC(=O)Cn1ncc2ccc(Nc3ncc(F)c(Nc4cccc(O)c4)n3)cc21 [Compound R935215]
5.39	CNC(=O)COc1ccc(Nc2ncc(F)c(Nc3ccc4c(c3)OCCCO4)n2)cc1 [Compound R935184]
4.62	COC(=O)COc1ccc(Nc2ncc(F)c(Nc3ccc4c(c3)OCCCO4)n2)cc1 [Compound R935182]
5.54	COC(=O)Cn1ncc2ccc(Nc3ncc(F)c(Nc4ccc5c(c4)OCCO5)n3)cc21 [Compound R935208]
< 5.00	CC(C)(C)c1ccc(Nc2nc(Nc3cccc(OCCO)c3)ncc2F)cc1 [Compound R926728]
< 5.00	COC(=O)COc1ccc(Nc2nc(Nc3ccc(OCC#N)cc3)ncc2F)cc1 [Compound R945062]
< 5.00	CCOC(=O)COc1ccc(Nc2ncc(F)c(Nc3ccc4c(c3)OCCO4)n2)cn1 [Compound R926740]

Second part, the compound before the results:

Compound	pIC50
CNC(=O)COc1cccc(Nc2ncc(F)c(Nc3cccc(SC(F)(F)F)c3)n2)c1 [Compound R926925]	5.23
CC1(C)Oc2ccc(Nc3nc(Nc4cccc(O)c4)ncc3F)cc2NC1=O [Compound R940346]	5.68
CS(=O)(=O)Nc1ccc(Nc2ncc(F)c(Nc3ccc(NS(C)(=O)=O)cc3)n2)cc1 [Compound R950083]	< 5.00
COC(=O)c1cc2cc(Nc3ncc(F)c(Nc4ccc5cnn(CCC(=O)O)c5c4)n3)ccc2o1 [Compound R935296]	< 5.00
O=C(c1cccc(Nc2ncc(F)c(Nc3ccc4cc[nH]c4c3)n2)c1)N1CCOCC1 [Compound R926934]	5.22
CCOC(=O)COc1cccc(Nc2ncc(C(=O)OCC)c(Nc3ccc4c(c3)OC(F)(F)C(F)(F)O4)n2)c1 [Compound R926799]	< 5.00
Cn1nnnc1COc1ccc(Nc2nccc(Nc3cccc(O)c3)n2)cc1 [Compound R920917]	5.58
O=C(c1cc2cc(Nc3ncc(F)c(Nc4ccc5oc(C(=O)N6CCOCC6)cc5c4)n3)ccc2o1)N1CCOCC1 [Compound R950172]	4.64
COC(=O)COc1ccc(Nc2ccnc(Nc3ccc(OCC(=O)OC)cc3)n2)cc1 [Compound R926256]	< 5.00
Oc1cccc(Nc2nc(Nc3cc(Br)cc(C(F)(F)F)c3)ncc2F)c1 [Compound R926846]	< 5.00
CCNC(=O)Oc1cccc(Nc2nc(Nc3cccc(OCC(=O)NC)c3)ncc2F)c1 [Compound R926919]	< 5.00
Cn1ncc2cc(Nc3nc(Nc4cccc(O)c4)ncc3F)ccc21 [Compound R935204]	5.41
COc1ccc(Nc2ncc(C)c(Nc3ccc(OC)c(-c4ccccc4)c3)n2)cc1-c1ccccc1 [Compound R935002]	< 5.00
CC(C)c1cccc(Nc2nc(Nc3cccc(OCC(=O)NC[C@@H](O)CO)c3)ncc2F)c1 [Compound R940307]	5.69
O=C(c1cc2cc(Nc3ncc(F)c(Nc4cccc(O)c4)n3)ccc2o1)N1CCOCC1 [Compound R926488]	5.61
Nc1cccc(Nc2nc(Nc3cccc(NC(=O)CCC(N)C(=O)O)c3)ncc2F)c1 (racemic) [Compound R950255]	< 5.00
CCOC(=O)c1cnc(Nc2ccc3cn[nH]c3c2)nc1Nc1ccc2cn[nH]c2c1 [Compound R926320]	< 5.00
Oc1cccc(Nc2ncc(F)c(Nc3ccc4cn[nH]c4c3)n2)c1 [Compound R935262]	5.51
CNC(=O)COc1cccc(Nc2ncc(F)c(Nc3ccc4c(c3)OCCO4)n2)c1 [Compound R926826]	5.43
CC(C)Oc1ccc(Nc2nc(Nc3ccc(OCc4nc(-c5ccccc5)no4)cc3)ncc2F)cc1 [Compound R935135]	< 5.00
O=C(NCCN1CCOCC1)c1cc2cc(Nc3ncc(F)c(Nc4ccc5oc(C(=O)NCCN6CCOCC6)cc5c4)n3)ccc2o1 [Compound R950173]	5.04

Same assay, conditions: Homo sapiens

Compound	pIC50
CC(C)NC(=O)Oc1cccc(Nc2ncc(F)c(Nc3cccc(OC(=O)NC(C)C)c3)n2)c1 [Compound R926412]	5.62

Same assay, conditions: Homo sapiens, Jurkat

pIC50	Compound
< 5.00	Cc1ccc(F)c(Nc2ncc(F)c(Nc3ccc4c(c3)OCCO4)n2)c1 [Compound R926897]
< 5.00	Fc1cnc(Nc2ccc3c(c2)OC(F)(F)O3)nc1Nc1ccc2c(c1)OCCO2 [Compound R926386]
5.41	CCOC(=O)c1cc2cc(Nc3ncc(F)c(Nc4ccc5c(c4)OCCO5)n3)ccc2[nH]1 [Compound R926476]
< 5.00	Oc1cccc(Nc2nc(NCc3ccc4c(c3)CCO4)ncc2F)c1 [Compound R950213]

The next lines start with the compound.

Compound	pIC50
COC(=O)c1cc2cc(Nc3ncc(F)c(Nc4cccc(C(C)C)c4)n3)ccc2o1 [Compound R940283]	< 5.00
N#Cc1cc(Nc2ncc(F)c(Nc3ccc(O)c(C#N)c3)n2)ccc1O [Compound R950092]	< 5.00
OCc1cccc(Nc2ncc(F)c(Nc3cccc(CO)c3)n2)c1 [Compound R925757]	< 5.00
Oc1cccc(Nc2ncc(F)c(NCc3csc4ccccc34)n2)c1 [Compound R945146]	< 5.00
Nc1cc(Cl)cc(Nc2ccnc(Nc3cc(N)cc(Cl)c3)n2)c1 [Compound R950133]	5.33
Cc1cc(O)cc(N(c2ccc3c(c2)OCCO3)c2nc(N)ncc2F)c1 [Compound R926893]	< 5.00
Oc1cccc(Nc2cc(Cl)nc(Nc3cccc(O)c3)n2)c1 [Compound R926408]	< 5.00
O=C(O)c1ccc(Nc2ncc(F)c(Nc3ccc(C(=O)O)c(O)c3)n2)cc1O [Compound R945061]	< 5.00
CC(C)(C)c1cccc(Nc2ncc(F)c(Nc3cccc(O)c3)n2)c1 [Compound R940257]	< 5.00
Fc1cnc(NCc2ccco2)nc1NCc1ccco1 [Compound R925769]	< 5.00
Oc1cccc(Nc2ncc(F)c(NC3c4ccccc4-c4ccccc43)n2)c1 [Compound R935020]	< 5.00
Oc1ccc(CCNc2ncc(F)c(NCCc3ccc(O)cc3)n2)cc1 [Compound R925791]	< 5.00

— patent US8158621B2, “Methods of treating or preventing autoimmune diseases with 2,4-pyrimidinediamine compounds” (Rigel Pharmaceuticals, Inc., priority 2002, dated 2012)
